Data on 10 molecules can be found in PubChem BioAssay (NCI).

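Results reflect a 48-hour exposure of cells in 96-well plates to compound at five concentrations. Abbreviation: GI50, concentration required for 50% inhibition of growth. TGI is the concentration that stops growth completely.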

What all share (test): DTP human tumour cell line panel, 48 h
Experiment [1] deals with A549 NSCLC.
For experiment [2], the system named is ACHN renal.
Experiment [3] has as its system HL-60(TB) leukemia.
The subject of experiment [4] is IGROV1 ovarian.
Experiment [5] relates to NCI-H23 lung.
The test system of experiment [6] is SK-MEL-28 melanoma.
The test system of experiment [7] is UACC-62 melanoma.
The test system of experiment [8] is UO-31 renal.
Experiment [9] relates to SK-MEL-5 melanoma.
Experiment [10] has as its system HOP-92 NSCLC.

For `O=C(O)CC1CC=C[C@H]2c3cc4c(cc3C(=O)NC12)OCO4` (some centres undefined), the TGI in [1], in experiment [2], in experiment [3], in experiment [4], in [5] and in experiment [6] was greater than 75 µM throughout. The TGI in experiment [7] and in [8] was greater than 75 µM in each case.

As to `CO[C@@H]1[C@H]2[C@@H](C)c3ccoc3C[C@@H]2[C@@]2(C)CC[C@H](OC(=O)c3ccccc3)[C@](C)(C(=O)O)[C@]2(O)[C@@H]1OC(=O)c1ccccc1`, the GI50 in experiment [1] is 10.6 µM; in experiment [2], 7.98 µM; in [3], 14.7 µM; in experiment [4], greater than 50 µM; in [5] it was 10.6 µM; in experiment [6], 14.5 µM. Also, the GI50 was 7.21 µM in [9], 7.12 µM in [7] and greater than 50 µM in [8]. For the same molecule, the TGI in experiment [1] was greater than 50 µM; in experiment [2] it was 18.9 µM; in experiment [3], greater than 50 µM; in [4], greater than 50 µM; in experiment [5] it was 28.5 µM; in experiment [6] it was greater than 50 µM. Further, the TGI was 13.7 µM in [9], 13.6 µM in experiment [7] and greater than 50 µM in experiment [8].

Take `O=c1c(-c2ccc(O)cc2)coc2cc(OC3OC(CO)C(O)C(O)C3O)cc(O)c12` (centres undefined): the GI50 was greater than 10 µM in [1]; greater than 10 µM in experiment [2]; greater than 100 µM in experiment [3]; greater than 100 µM in experiment [4]; greater than 100 µM in [5]; greater than 100 µM in [6]. Besides, the GI50 in experiment [9] was greater than 100 µM; in experiment [7] it was greater than 10 µM. The TGI in experiment [1], in experiment [2], in experiment [3], in [4], in experiment [5] and in experiment [6] was greater than 100 µM each time. Moreover, the TGI in [9], in experiment [7] and in [8] was greater than 100 µM each time.

Turning to `O=C(NNC(=S)Nc1ccccc1)c1ccccn1`, the GI50 in experiment [1] was 1.56 µM; in experiment [2] it was 1.22 µM; in experiment [3] it was 2.58 µM; in [4], 3 µM; in [5], 6.95 µM; in experiment [6], 2.8 µM. The GI50 was 2.11 µM in experiment [9] and 0.95 µM in [8]. The TGI was 47.7 µM in experiment [1]; greater than 100 µM in experiment [2]; 7.85 µM in [3]; greater than 100 µM in [4]; greater than 100 µM in experiment [5]; greater than 100 µM in experiment [6]. In addition, the TGI in [9] was greater than 100 µM; in [8] it was 16.9 µM.

For the molecule `Nc1nc(N)c(N=Nc2ccc(C(=O)O)c(O)c2)c(N)n1`, the TGI in experiment [1], in experiment [2], in experiment [10], in [4], in experiment [5] and in [6] was greater than 100 µM throughout. The TGI in [9], in experiment [7] and in experiment [8] was greater than 100 µM throughout.

In the case of `O=C(Nc1cccnc1)c1ccc2ccc3ccc(C(=O)Nc4cccnc4)nc3c2n1`, the GI50 in experiment [1] is 0.135 µM; in experiment [2], 0.145 µM; in experiment [3], 0.132 µM; in experiment [4], 0.125 µM; in experiment [5], 0.202 µM; in experiment [6], 0.324 µM. In addition, the GI50 was 0.271 µM in experiment [9], 0.205 µM in [7] and greater than 100 µM in experiment [8]. Also, the TGI in [1], in [2], in experiment [3], in experiment [4], in experiment [5] and in experiment [6] was greater than 100 µM throughout. For the same molecule, the TGI in experiment [9], in experiment [7] and in experiment [8] was greater than 100 µM throughout.

With `COc1cc(/C=C\c2ccc(OC(C)=O)cc2)cc(OC)c1OC`, the TGI in experiment [1] is greater than 100 µM; in experiment [2] it was greater than 100 µM; in [10] it was greater than 100 µM; in experiment [4], greater than 100 µM; in experiment [5], 13.2 µM; in [6], 7.67 µM. Further, the TGI in [7] is greater than 100 µM; in [8], 28.7 µM.

Regarding `CC[C@]12C=CCN3CC[C@@]4(c5ccc(OC)cc5N(C)[C@H]4[C@@](O)(C(=O)OC)[C@@H]1OC(=O)CCC(=O)N[C@H](Cc1c[nH]c4ccccc14)C(=O)OC)[C@@H]32`, the GI50 in experiment [1] is 5.36 µM; in experiment [2], 13.4 µM; in [10] it was 4.02 µM; in experiment [4], 4.3 µM; in experiment [5], 13.5 µM; in experiment [6], 2.21 µM. Moreover, the GI50 in experiment [9] is 2.54 µM; in [7], 2.42 µM; in experiment [8], 2.97 µM. Moreover, the TGI came to 22.1 µM in experiment [1]; 52.7 µM in experiment [2]; 24.4 µM in experiment [10]; 24.1 µM in experiment [4]; 54.3 µM in experiment [5]; 5.44 µM in experiment [6]. Further, the TGI in [9] turned out to be 7.14 µM; in [7], 7.19 µM; in experiment [8], 13.7 µM.

Turning to `O=C1[C@H](Cl)[C@H]2c3cc4ccccc4nc3Oc3ccccc3N12`, the TGI in experiment [1], in experiment [2], in experiment [3], in experiment [4], in [5] and in [6] was greater than 100 µM each time. In addition, the TGI was greater than 100 µM in experiment [9], 42.5 µM in experiment [7] and 72.6 µM in experiment [8].

Take `NNC(=O)N/N=C1\C(=O)N(c2nccs2)C(=O)C(=O)C1c1nc2ccccc2s1` (centres undefined): the TGI in [1], in experiment [2], in experiment [10], in experiment [4], in [5] and in experiment [6] was greater than 100 µM in each case. The TGI in [7] and in experiment [8] was greater than 100 µM throughout.

The TGI is the concentration at which net growth stops. Read a low TGI as more potent growth arrest. A word on the GI50: it is the concentration giving 50% growth inhibition.
